# Laboratory results reported in patent US10513511B2, “Aqueous suspension formulation comprising 4-(4-(4-(((3R,5R)-5-((1H-1,2,4-triazol-1-yl)methyl)-5-(2,4-difluoro-phenyl)tetrahydrofuran-3-yl)methoxy)-3-methylphenyl) or a pharmaceutically acceptable salt thereof” (PULMOCIDE LIMITED, priority 2015, dated 2019).
# Assays:
# [1] = system: Aspergillus fumigatus (azole susceptible strain: NCPF2010); experiment: Aspergillus fumigatus infection of human alveoli bilayers (transwells), azole susceptible strain; assay type: cell-based
# Protocol: (§1) In vitro models of human alveoli, consisting of a bilayer of human alveolar epithelial cells and endothelial cells, were prepared as previously described (Hope et al., 2007). This system allows administration of a test compound to the upper (“air” space) and/or lower (“systemic” space) compartments. This flexibility has been exploited to explore the effects of combination treatment by dosing Compound (I) to the upper chamber and posaconazole or other anti-fungal agents to the lower chamber. Primary human pulmonary artery endothelial cells (HPAEC) were harvested and diluted to 10^6 cells/mL in EGM-2 media (Lonza, Basel, Switzerland). Transwells were inverted and the cell suspension (100 μL/well) applied to the base of each transwell. The inverted transwells were incubated at RT within a flow hood for 2 hr after which they were turned upright. EGM-2 media was added to the lower (700 μL/well) and upper (100 μL/well) compartments and the transwells were incubated for 48 hr (37° C., 5% CO2). The EGM-2 media in the lower compartment was then replaced with fresh EGM-2 media. A549 cells were harvested and diluted to 5×10^5 cells/mL in 10% EBM, then added to the upper compartment (100 μL/well) of all transwells and the plates incubated for 72 hr (37° C., 5% CO2). Conidia of itraconazole sensitive Aspergillus fumigatus s (NCPF2010) and itraconazole resistant (TR34-L98H) strains were cultured separately in Sabouraud dextrose agar for 3 days. A stock conidia suspension of either strain was prepared from a Sabouraud dextrose agar culture by washing with PBS-tween (10 mL; PBS containing 0.05% Tween-20, 100 U/mL Penicillin and 100 U/mL Streptomycin). The conidia count was assessed using a Neubauer haemocytometer and adjusted to 10^6 conidia/mL with PBS. A working stock of conidia was prepared in EBM (10^5 conidia/mL) immediately prior to use.
# (§2) Test and reference compounds (or neat DMSO as the vehicle) were added to the appropriate wells of 24-well plates (3 μL/well containing 600 μL of 2% FBS EBM) for lower compartment treatment and to 96-well plates (1 μL/well containing 200 μL of 2% FBS EBM) for the treatment of the upper compartment, to provide a final DMSO concentration of 0.5%. The media in the upper compartment was aspirated and that containing the appropriate test and reference compounds, or vehicle, were added (100 μL/well). Transwells were then transferred into the 24-well plate containing the test and reference compounds or DMSO vehicle. After incubation for 1 hr (35° C., 5% CO2) the conidia suspension (10 μL/well) was added to the upper compartment of each transwell. Plates were then incubated for 24 hr (35° C., 5% CO2). Supernatants from each compartment (5 μL/compartment) were collected and stored (−20° C.). Media was replaced daily after collection of the supernatants and all wells were treated with test and reference compounds or with DMSO, as described above, for 3 days. Samples continued to be collected until fungal growth was visible by eye in all transwells. The levels of GM in the supernatant in lower compartment were then measured by ELISA (BioRad, CA, USA) as an index of Aspergillus fumigatus invasion.
# [2] = system: Aspergillus fumigatus (azole resistant strain: TR34/L98H); experiment: Aspergillus fumigatus infection of human alveoli bilayers (transwells), azole resistant strain; assay type: cell-based
# Protocol: as §1, §2
# [3] = Body weight loss of immunocompromised, neutropenic mice caused by A. fumigatus infection; assay type: in vivo, A/J mice; conditions: days 1, 2 and 3 (therapeutic); for Body weight loss Day 2 / Body weight loss Day 3: vs weight on day 1
# Protocol: Aspergillus fumigatus (ATCC 13073 [strain: NIH 5233], American Type Culture Collection, Manassas, Va., USA) was grown on Malt agar (Nissui Pharmaceutical, Tokyo, Japan) plates for 6-7 days at RT (24±1° C.). Spores were aseptically dislodged from the agar plates and suspended in sterile distilled water with 0.05% Tween 80 and 0.1% agar. On the day of infection, spore counts were assessed by haemocytometer and the inoculum was adjusted to obtain a concentration of 1.67×10^8 spores mL^−1 of physiological saline. […] On day 0, animals were infected with the spore suspension (30 μL intra-nasally).
# Test substances were administered intra-nasally (35 μL of a suspension (0.0032-10.0 mg/mL of drug substance in physiological saline) once daily, on days 1, 2 and 3 only (thereby representing a therapeutic treatment regimen). For extended prophylactic treatment, test compounds (35 μL of a suspension of 0.0032 or 0.016 mg/mL in physiological saline) were administered intra-nasally once daily for seven days. One group was dosed 30 min before infection on day 0 but not subsequently, while a second group was further dosed on days 1, 2 and 3 after infection. The effects of these treatment paradigms were compared with those obtained when treatment was restricted in other groups to either one day or 30 min before inoculation and then on days 1, 2 and 3 post infection in both cases. In a final group, dosing was limited still further with animals dosed twice, one day and 30 min before infection only.
# Animal body weights were monitored daily and at 6 hr after the last dose of drug was administered on day 3, the animals were anesthetised, the tracheas cannulated and BALF blood and lung tissue were collected. The levels of IL-6 and TNFα in serum were determined using Quantikine® mouse IL-6 or TNF-α ELISA kit (R&D systems, Inc., Minneapolis, Minn., USA) respectively. Aspergillus GM in serum was determination using Platelia GM-EIA kits (Bio-Rad Laboratories, Redmond, Wash., USA). Cut-off index (COI) was calculated by the formula: Cut-off index=OD in sample/OD in cut-off control provided in kit. For tissue fungal load assays, 100 mg of lung tissue was removed aseptically and homogenized in 0.2 mL of 0.1% agar in sterile distilled water. Serially diluted lung homogenates were plated on Malt agar plates (50 μL/plate), and incubated at 24±1° C. for 72 to 96 h. The colonies of A. fumigatus on each plate were counted and the fungal titre presented herein as CFUs per gram of lung tissue.
# [4] = Day 1, NCPF2010, Compound (Ia) 0.1 μg/mL upper chamber, posaconazole 0.01 μg/mL lower chamber, combination of both
# [5] = Day 2, NCPF2010, Compound (Ia) 0.1 μg/mL upper chamber, posaconazole 0.01 μg/mL lower chamber, combination of both
# [6] = Day 3, NCPF2010, Compound (Ia) 0.1 μg/mL upper chamber, posaconazole 0.01 μg/mL lower chamber, combination of both
# [7] = Day 4, NCPF2010, Compound (Ia) 0.1 μg/mL upper chamber, posaconazole 0.01 μg/mL lower chamber, combination of both
# [8] = Day 5, NCPF2010, Compound (Ia) 0.1 μg/mL upper chamber, posaconazole 0.01 μg/mL lower chamber, combination of both
# [9] = Day 6, NCPF2010, Compound (Ia) 0.1 μg/mL upper chamber, posaconazole 0.01 μg/mL lower chamber, combination of both
# [10] = Day 7, NCPF2010, Compound (Ia) 0.1 μg/mL upper chamber, posaconazole 0.01 μg/mL lower chamber, combination of both
# [11] = Compound (Ia) 0.0032 mg/mL intranasal
# [12] = Compound (Ia) 0.016 mg/mL intranasal
# [13] = Compound (Ia) 0.08 mg/mL intranasal
smiles,measurement,setting,value
"Cc1cc(N2CCN(c3ccc(C(=O)N[C@H]4CCCC[C@@H]4O)cc3)CC2)ccc1OC[C@@H]1CO[C@@](Cn2cncn2)(c2ccc(F)cc2F)C1 [Compound (Ia), 4-(4-(4-(((3R,5R)-5-((1H-1,2,4-triazol-1-yl)methyl)-5-(2,4-difluorophenyl)tetrahydrofuran-3-yl)methoxy)-3-methylphenyl)piperazin-1-yl)-N-((1S,2S)-2-hydroxycyclohexyl) benzamide]",MIC50,"[1]; Aspergillus fumigatus, NCPF2010, 24 h, read-out: MIC50, invasion into the lower chamber in human alveoli bilayers",0.154 µM
same,MIC90,"[1]; Aspergillus fumigatus, NCPF2010, 24 h, read-out: MIC90, invasion into the lower chamber in human alveoli bilayers",0.185 µM
same,"GM Levels in the Lower Chamber, OD value","[1]; Day 0, NCPF2010, Compound (Ia) 0.1 μg/mL upper chamber, posaconazole 0.01 μg/mL lower chamber, combination of both",0 OD
same,"GM Levels in the Lower Chamber, % inhibition vs.control",[1]; [4],66%
same,"GM Levels in the Lower Chamber, OD value",[1]; [4],0.24 OD
same,"GM Levels in the Lower Chamber, % inhibition vs.control",[1]; [5],1.5%
same,"GM Levels in the Lower Chamber, OD value",[1]; [5],1.71 OD
same,"GM Levels in the Lower Chamber, % inhibition vs.control",[1]; [6],8.6%
same,"GM Levels in the Lower Chamber, OD value",[1]; [6],1.67 OD
same,"GM Levels in the Lower Chamber, % inhibition vs.control",[1]; [7],−1.6%
same,"GM Levels in the Lower Chamber, OD value",[1]; [7],1.68 OD
same,"GM Levels in the Lower Chamber, % inhibition vs.control",[1]; [8],0.2%
same,"GM Levels in the Lower Chamber, OD value",[1]; [8],1.63 OD
same,"GM Levels in the Lower Chamber, % inhibition vs.control",[1]; [9],−1.8%
same,"GM Levels in the Lower Chamber, OD value",[1]; [9],1.57 OD
same,"GM Levels in the Lower Chamber, % inhibition vs.control",[1]; [10],7.1%
same,"GM Levels in the Lower Chamber, OD value",[1]; [10],1.54 OD
same,DFB50: Days taken to reach a fungal burden of 50% of control,"[1]; NCPF2010, Compound (Ia) 0.1 μg/mL upper chamber, posaconazole 0.01 μg/mL lower chamber, combination of both",1.04 days
same,maximum inhibition of GM levels in the bottom chamber,"[1]; NCPF2010, administration to the apical chamber, 1 day post infection",exceeding 90%
same,MIC50,"[2]; Aspergillus fumigatus, 24 h, read-out: MIC50, invasion into the lower chamber in human alveoli bilayers",0.261 µM
same,MIC90,"[2]; Aspergillus fumigatus, 24 h, read-out: MIC90, invasion into the lower chamber in human alveoli bilayers",0.417 µM
same,maximum inhibition of GM levels in the bottom chamber,"[2]; TR34/L98H, administration to the apical chamber, 1 day post infection",exceeding 90%
same,% Inhibition of weight loss Day 2,[3]; [11],24%
same,% Inhibition of weight loss Day 3,[3]; [11],9%
same,Body weight loss Day 2,[3]; [11],4.2 ± 1.2%
same,Body weight loss Day 3,[3]; [11],9.7 ± 2.1%
same,% Inhibition of weight loss Day 2,[3]; [12],35%
same,% Inhibition of weight loss Day 3,[3]; [12],9%
same,Body weight loss Day 2,[3]; [12],3.6 ± 1.2%
same,Body weight loss Day 3,[3]; [12],9.7 ± 3.2%
same,% Inhibition of weight loss Day 2,[3]; [13],49%
same,% Inhibition of weight loss Day 3,[3]; [13],22%
same,Body weight loss Day 2,[3]; [13],2.8 ± 2.4%
same,Body weight loss Day 3,[3]; [13],8.3 ± 6.7%
